Reference: US8114909B2, “Treating or preventing restless legs syndrome using prodrugs of GABA analogs” (XenoPort, Inc., priority 2003, dated 2012)

Experiment: drug release from the sustained release oral osmotic dosage form in artificial gastric fluid
Assay type: physicochemical
Details: release of prodrug from the osmotic sustained release dosage form of Example 1 (700 mg drug composition, one 10 mil passageway)
Procedure: The bilayered arrangements next are coated with a semipermeable wall. The wall-forming composition comprises 100% cellulose acetate having a ˜40% acetyl content. The polymer is dissolved in 100% acetone to make a 4% solid solution. The wall forming composition is sprayed at 26 grams/min onto and around the bilayer cores in a tablet coater until a dry weight of 90 mg/core is achieved. Next, one 10 mil (0.254 mm) exit passageway is mechanically drilled through the semipermeable wall to connect the drug layer with the exterior of the dosage system. The residual solvent is removed by first drying for 120 hours at 50° C. and 30% relative humidity, then the systems are dried for 2 hours at 50° C. to remove excess moisture. The drug dosage form produced by this process provides: ˜90 wt % 1-{[(α-isobutanoyloxyethoxy)carbonyl]aminomethyl}-1-cyclohexane acetic acid, 4 wt % hydroxypropylmethylcellulose of 11,200 molecular weight, 4 wt % polyethylene oxide of 5,000,000 molecular weight and 1 wt % magnesium stearate in the drug layer. The push composition comprises 63.7 wt % polyethylene oxide of 7,500,000 molecular weight, 30 wt % sodium chloride, 5 wt % hydroxypropylmethylcellulose of 11,200 molecular weight, 1 wt % red ferric oxide, 0.25 wt % magnesium stearate, and 0.075 wt % of butylated hydroxytoluene. The wall comprises 100 wt % cellulose acetate comprising a ˜40% acetyl content. […]

CC(OC(=O)NCC1(CC(=O)O)CCCCC1)OC(=O)C(C)C (stereo not drawn) [1-{[(α-isobutanoyloxyethoxy)carbonyl]aminomethyl}-1-cyclohexane acetic acid]
release rate: > 20 mg/h
